Experimental data: paper PMC9598656, “In Vitro Activity of Robenidine Analogues NCL259 and NCL265 against Gram-Negative Pathogens” (Antibiotics, 2022)

Columns and labels:
[1] = tested on: Wild-type (E. coli BW 25113); experiment: MIC, efflux-pump wild-type; assay type: cell-based; settings: Escherichia coli; Wild-type (E. coli BW 25113); read-out: MIC Values
Procedure: (§1) A variety of Gram-negative reference strains (E. coli ATCC 25922, E. coli ATCC 10763, P. aeruginosa PAO1, P. aeruginosa ATCC 27853, A. baumannii ATCC 12457, A. baumannii ATCC 19606, K. pneumoniae ATCC 4352 and K. pneumoniae ATCC 33495) were used for initial screening and combination testing with PMB. The organisms were speciated using biochemical testing and MALDI-TOF mass spectrometry (Bruker, Preston, VIC, Australia). Activity testing of NCL259 and NCL265 was also carried out on 51 extraintestinal clinical E. coli isolates from companion animals, and 83 porcine and bovine enterotoxigenic E. coli (ETEC) isolates from the Australian Centre for Antimicrobial Resistance Ecology collection. E. coli wild-type (BW 25113) and its mutant BW 25113∆AcrB, in which the inner membrane component AcrB of the tripartite multidrug efflux system AcrA/AcrB/TolC has been deleted, were obtained from the bacterial collection held at Health and Biomedical Innovation, Clinical and Health Sciences, The University of South Australia. All isolates were cultured on sheep blood agar (SBA) plates at 37 °C for 18 h before being subcultured into Luria Bertaini (LB) (Oxoid, Scoresby, VIC, Australia) broth and grown to A600nm = 0.5 (equivalent to approx. 1.5 × 10^8 colony-forming units (CFU)/mL).
MICs for NCL259 and NCL265 (serial two-fold dilutions commencing at 256 µg/mL) were determined (in duplicate) in round bottom 96–well microtitre trays (Sarstedt 82.1582.001), using the broth micro-dilution method recommended by the Clinical and Laboratory Standards Institute (CLSI). We have shown previously that robenidine can chelate calcium ions from cation-adjusted Mueller-Hinton broth, which causes the loss of activity of robenidine. Therefore, LB broth was used in this study. […] The MIC for ampicillin against each isolate was determined for each test to serve as an internal quality control. The MICs of isolates were determined by visual reading and using an EnSpire Multimode Plate Reader 2300 at A600nm.

E. coli BW 25113 (∆AcrB) = experiment: MIC, efflux-pump mutant; assay type: cell-based, Escherichia coli; settings: Escherichia coli, read-out: MIC Values
Procedure: as §1
MICs for NCL259 and NCL265 (serial two-fold dilutions commencing at 256 µg/mL) were determined (in duplicate) in round bottom 96–well microtitre trays (Sarstedt 82.1582.001), using the broth micro-dilution method recommended by the Clinical and Laboratory Standards Institute (CLSI). We have shown previously that robenidine can chelate calcium ions from cation-adjusted Mueller-Hinton broth, which causes the loss of activity of robenidine. Therefore, LB broth was used in this study. Additionally, considering the low solubility of robenidine and its analogues in aqueous solutions, two-fold serial dilutions of stock solutions of these compounds were prepared in 100% DMSO [21]. The MIC for ampicillin against each isolate was determined for each test to serve as an internal quality control. The MICs of isolates were determined by visual reading and using an EnSpire Multimode Plate Reader 2300 at A600nm.

For `CC[C@H]1OC(=O)[C@H](C)[C@@H](O[C@H]2C[C@@](C)(OC)[C@@H](O)[C@H](C)O2)[C@H](C)[C@@H](O[C@@H]2O[C@H](C)C[C@H](N(C)C)[C@H]2O)[C@](C)(O)C[C@@H](C)C(=O)[C@H](C)[C@@H](O)[C@]1(C)O` [Erythromycin, reference compound], the MIC [1] was > 128 µg/mL and the MIC (E. coli BW 25113 (∆AcrB)) was 2 µg/mL.
